Earlier results in patent US5554621A, “Dihydropyridine NPY antagonists: nitrogen heterocyclic derivatives” (Bristol-Myers Squibb Company, priority 1995, dated 1996).
pIC50: −log10 of the molar value.

How the values were obtained:
[1] = tested on: NPY-induced increase in intracellular Ca++ in SK-N-Mc cells
[2] = tested on: NPY-induced pressor response; details: pithed rat
[3] = tested on: NPY-induced contractions in guinea pig basilar artery
NPY1 = biological target: T1, NPY1 (Rattus norvegicus, UniProt P21555)
T1 construct: vasoconstrictive activity of the NPY1 agonist
T1 sequence (P21555 1-382): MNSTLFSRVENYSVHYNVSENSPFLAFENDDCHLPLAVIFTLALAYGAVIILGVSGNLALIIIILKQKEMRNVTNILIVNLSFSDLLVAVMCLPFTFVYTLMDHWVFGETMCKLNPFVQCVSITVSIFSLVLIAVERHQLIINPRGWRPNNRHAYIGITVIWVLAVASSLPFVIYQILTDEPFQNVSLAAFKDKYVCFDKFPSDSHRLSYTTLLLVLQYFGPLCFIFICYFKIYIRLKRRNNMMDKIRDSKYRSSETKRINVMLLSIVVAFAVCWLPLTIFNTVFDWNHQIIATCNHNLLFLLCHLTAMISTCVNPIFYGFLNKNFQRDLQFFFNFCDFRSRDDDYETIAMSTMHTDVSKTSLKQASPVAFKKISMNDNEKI

Y2 receptor = biological target: T2, Y2 receptor (Rattus norvegicus, UniProt Q9ERC0); details: functional selectivity for Y2 receptor
T2 sequence (Q9ERC0 1-381): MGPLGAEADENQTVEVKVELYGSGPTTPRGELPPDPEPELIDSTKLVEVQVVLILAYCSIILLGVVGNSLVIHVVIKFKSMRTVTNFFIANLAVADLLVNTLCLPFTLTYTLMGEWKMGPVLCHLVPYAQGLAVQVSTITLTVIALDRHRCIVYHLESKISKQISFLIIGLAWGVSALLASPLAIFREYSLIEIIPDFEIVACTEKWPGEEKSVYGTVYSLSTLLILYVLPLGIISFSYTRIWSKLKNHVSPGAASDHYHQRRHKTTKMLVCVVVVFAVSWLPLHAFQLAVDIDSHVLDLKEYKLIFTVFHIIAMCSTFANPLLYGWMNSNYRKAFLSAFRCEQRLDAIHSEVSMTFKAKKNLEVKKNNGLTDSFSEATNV

3H-NPY in rat brain = details: read-out: IC50 (displacement of 3H-NPY)
[4] = tested on: NPY-related increases in diastolic blood pressure; details: anesthetized guinea pig
[5] = tested on: I-125 labeled NPY and PYY in human neuroblastoma cells

N=C(N)NCCC[C@@H](NC(=O)C(c1ccccc1)c1ccccc1)C(=O)NCc1ccc(O)cc1 [BIBP 3226]
Antagonism of NPY-induced increase in intracellular Ca++ [1]: antagonized
Antagonism of NPY-induced pressor response [2]: antagonizing

O=P(O)(O)O[C@@H]1[C@H](OP(=O)(O)O)[C@H](O)[C@@H](O)[C@H](O)[C@H]1OP(=O)(O)O [D-Myo-inositol-1,2,6-triphosphate]
Antagonism of NPY-induced contractions [3]: potent but non-competitive antagonist

N=C(N)N(CCCCCCNCc1ccc2ccccc2c1)CCCCCCN(CCCCCCNCc1ccc2ccccc2c1)C(=N)N [Example 6b]
Functional antagonism (rat femoral artery): functional antagonism
Effect on vasoconstrictive activity of NPY1 agonist [Leu31, Pro34]NPY (NPY1): no effect
Effect against NPY2 agonist NPY13-36 (Y2 receptor): antagonized the effect
pIC50 (3H-NPY in rat brain): 4.74

CN(C)CC1CCC(CNC(=N)c2ccc(CC(NC(=O)C(Cc3ccccc3)NS(=O)(=O)c3ccc4ccccc4c3)C(=O)N3CCCC3)cc2)CC1 (stereo not drawn) [SR 120819A]
Antagonism of NPY-related increases in diastolic blood pressure [4]: antagonized
Displacement of I-125 labeled NPY and PYY [5]: displacing
